Results: paper PMC9016803, “Mitochondria-targeted half-sandwich iridium(III)-Cp*-arylimidazophenanthroline complexes as antiproliferative and bioimaging agents against triple negative breast cancer cells MDA-MB-468” (RSC Advances, 2022)

How the values were obtained:
[1] = Solubility study; type: physicochemical; conditions: DMSO-10% DMEM medium (1 : 99 v/v, comparable to cell media)
Protocol: Both hydrophilicity and lipophilicity studies were performed to determine the tumour-inhibiting potential of the metal complexes. These complexes were highly soluble in DMSO and moderately soluble in H2O, MeOH, EtOH and CH3CN. […] The lipophilicity of these complexes was determined by performing an n-octanol/water partition coefficient (log Po/w, where Po/w = the octanol/water partition coefficient) study using the shake flask method (Table 1).[24] The experimental log Po/w values of these complexes were determined to be in the range of 0.27–0.34 (Table 1). […] This change in the electrolytic behaviour of the complexes from 1 : 1 to 1 : 2 can be attributed to the dissociation of the Ir–Cl bond and subsequent aquation of the complexes.

[2] = test system: MDA-MB-468 cells; assay: Annexin V-FITC/PI apoptosis assay; type: cell-based; conditions: 3 μM
[3] = target: T1, BSA (Bos taurus, UniProt P02769); assay: BSA binding, tryptophan emission quenching; set-up: species or system bovine
T1 construct: purchased Sigma Aldrich Chemical Limited
T1 sequence (P02769 25-607): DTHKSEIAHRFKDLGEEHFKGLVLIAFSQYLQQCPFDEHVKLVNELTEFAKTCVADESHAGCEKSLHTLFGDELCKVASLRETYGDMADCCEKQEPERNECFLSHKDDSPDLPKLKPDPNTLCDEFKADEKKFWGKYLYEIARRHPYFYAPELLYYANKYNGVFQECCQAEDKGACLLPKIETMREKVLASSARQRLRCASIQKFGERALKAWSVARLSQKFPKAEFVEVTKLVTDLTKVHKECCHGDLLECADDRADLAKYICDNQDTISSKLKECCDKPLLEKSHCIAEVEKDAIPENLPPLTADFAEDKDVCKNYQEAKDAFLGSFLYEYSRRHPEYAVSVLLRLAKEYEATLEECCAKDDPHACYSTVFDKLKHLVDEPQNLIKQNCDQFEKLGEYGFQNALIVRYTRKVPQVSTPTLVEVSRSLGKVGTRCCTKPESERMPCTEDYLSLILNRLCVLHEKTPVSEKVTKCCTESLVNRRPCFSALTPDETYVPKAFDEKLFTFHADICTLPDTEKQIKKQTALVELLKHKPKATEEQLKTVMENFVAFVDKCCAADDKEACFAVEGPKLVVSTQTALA
Protocol: Upon excitation at 295 nm, the emission intensity of BSA at λem = 350 nm decreased gradually on increasing the complex concentration, which confirmed that the interaction between complex IrL1 with BSA had occurred, as observed in Fig. 8. The Stern–Volmer quenching constant of these complexes with BSA (KBSA) was calculated using the Stern–Volmer equation and the corresponding Stern–Volmer plots (Fig. 8, inset). The binding affinity (K) of the complexes was calculated from Scatchard plot analysis (Fig. 8, inset). […]
Kapp × [Complex]50 = kEtBr × [EtBr]⋯⋯⋯(iii) […]
Stern-Volmer equation was followed for quantitative determination of the Stern-Volmer quenching constant (K SV).5 Origin (8.5) software was used to plot the fluorescence data to obtain linear plot of I0/I vs. [complex]. The value of KSV was calculated from the following […]
Where I0 = fluorescence intensity in absence of complex and I = fluorescence intensities in presence of complex of concentration [Q].
We are acquainted with the fact that serum albumin proteins are the main component. […] After each addition, the solutions were shaken slowly for 5 min before recording the fluorescence at a wavelength of 295 nm (λex = 295 nm). A gradual decrease in fluorescence intensity of BSA at λ = 340 nm was observed upon increasing the concentration of complex, which confirmed […]
that the interaction between the complex and BSA was happened. Stern-Volmer equation was employed to quantitatively determine the quenching constant (K BSA). […]
Where I0 is the fluorescence intensity of BSA in absence of complex and I indicates the fluorescence intensity of BSA in presence of complex of concentration [Q], τ0 = lifetime of the tryptophan in BSA found as 1 x 10-8 and kq is the quenching constant. […]
To allow the phase separation, the solution was centrifuged for 10 min at 3000 rpm. […] Aliquots of the aqueous and octanol layers were pipetted out separately and the absorbances were measured with UV-Vis spectrophotometer using proper dilution. […]

[4] = test system: MDA-MB-468 cells; assay: ROS generation, DCFDA staining; type: cell-based
Protocol: Our results indicated a dose dependent increase in ROS production in the MDA-MB-468 cells treated with IrL1 concentrations 1 μM and 3 μM. The extent of ROS production is indicated by the 2′,7′-dichlorofluorescein (DCF) formed by the deacetylation and subsequent oxidation of 2′,7′-dichlorofluorescin diacetate (DCFDA) through cellular esterases and ROS. […] ROS production was absent in untreated control. However, in the positive control, treated with H2O2, ROS production was high which is ∼99% (Fig. 11).
Colocalization study and ROS generation studies were performed using live cell lines in their log phase.

[5] = test system: MDA-MB-468 cells; assay: Mitochondrial membrane potential, JC-1 staining, flow cytometry; type: cell-based
Protocol: The cells treated with the mitochondrial uncoupler CCCP (carbonyl cyanide m-chlorophenylhydrazone), which mediates the dissipation of mitochondrial membrane potential, served as positive control for the detection of mitochondrial dysfunction. […] Unstained control represented in Fig. 10A has been used for gating purposes. […]

Solubility [1]: 700 µM
K, binding affinity (Scatchard plot) ([3]; BSA): 6.3e+06 M⁻¹
kq, bimolecular quenching constant ([3]; calculated from KSV and τ0 (1 × 10^−8 s)): 5 × 10^12 M^−1 S^−1
KBSA, Stern–Volmer quenching constant with BSA ([3]; excitation 295 nm): 50000 M⁻¹
Substance: [Iridium(III)-Cp*-2-(naphthalen-1-yl)-1H-imidazo[4,5-f][1,10]phenanthroline]PF6 [IrL1]
early apoptotic cells [2]: ~34.89%
viable cell population [2]: ~51.37%
DCF positive cells ([4]; 1 μM): 55.01%
DCF positive cells ([4]; 3 μM): 70.67%
cells with damaged mitochondria (JC-1 monomers) ([5]; 1 μM): 27.86%
cells with damaged mitochondria (JC-1 monomers) ([5]; 3 μM): ~47.52%
cells with damaged mitochondria (JC-1 monomers) ([5]; 5 μM): 67.02%
